# Values joined by “and” are separate entries in the source; they are usually repeats but may differ in a detail not shown here. Equal entries are not always repeated.
# How the values were obtained:
# F98 glioma cells = assay: L-[^18F]FET uptake by F98 glioma tumor cells; type: cell-based, rat; settings: for uptake ratio (radioactivity uptake of cells / total added radioactivity): 10 μCi/well
# Experimental: (1) In five six-well plates, put 1×10^6 F98 glioma cells and 2 ml DMEM (1 g glucose/l) into three wells.
# (2) Total of five time points (2, 5, 10, 30 minute and 1 hour) in this experiment and each time point use one six-well plate.
# (3) Predetermined activity of L-[^18F]FET or [^18F]FDG (10 μCi/well) is added into each well during the experiment. Radioactivity uptake of cells divided by total added radioactivity can obtain its calculated uptake ratio.
# F98 glioma cells intake L-[^18F]FET rapidly and maximal accumulation will reach after 10 minutes (uptake ratio 0.47%). As cell cannot metabolize L-[^18F]FET, therefore, the rate of L-[^18F]FET transportation by the cells become balance after ten minutes when add L-[^18F]FET; the accumulation of L-[^18F]FET in glioma cells only slightly decrease after 1 hour (uptake ratio 0.41%).
# [1] = tested on: F98 glioma implanted Fischer 344 rat; assay: Biological distribution of L-[^18F]FET in F98 glioma-bearing Fischer 344 rat; type: in vivo
# Experimental: (1) Total of twenty Fischer 344 male rats will be assessed in vivo for L-[^18F]FET biological distribution. Use the intersection of bregma and sagittal midlines as original point; so as to implant F98 glioma cells (1×10^5 cells/10 μl) at the place of 3 mm left 5 mm upward and 5 mm depth. Biological distribution test will be carry out after 11˜12 days of brain tumor implantation.
# (2) Different volume of radioactive level is injected, injected volume of L-[^18F]FET for each Fischer 344 rat is 200˜300 μl, that is approximately 200˜250 μCi of activity.
# (3) Inject L-[^18F]FET via tail vein, and rats are sacrificed at 15, 30, 60, 90 and 120 minutes.
# (4) Dissection of rat organ is right after sacrifice. Scissors off chest and abdomen fur alone the line from genital pore upward to jowl. Next, scissors off chest above xiphisternal transversely. Open ribs aside, take blood sample from venous sinus with 0.5 ml syringe. Withdraw the needle after depletion of blood and collect the extracted heart. Collect the lung lobes with forcep.
# (5) Scissors off abdominal muscle from genital pore upward to the position below xiphisternal longitudinally. Then, scissors off the opening of upper and lower edges transversely, everts muscle layers to both sides and expose celiac organs. Search for bladder in lower abdomen and sequentially removes stomach, liver, spleen, small intestine, large intestine, kidney, and muscle.
# (6) After turn over the rat, scissors off fur of shoulder and removes exposed subcutaneous tumor. Cut scalp upward at lower margin of cranium above foramen magnum and expose cranial bone. Then, cut cervical portion transversely at foramen magnum and expose spinal cord. Inserts foramen magnum with scissors' tip while attach the inner surface of cranium; such that scissors' tip can reach the frontal edge of cranial cavity in order to scissor off the center of cranium. Use scissors to open cranium aside and expose brain tissue. Alone skull base insert scissors deeply to the front edge of cranial cavity in order to remove left-brain, right-brain and brain tumor.
# (7) Weight all organ samples; measure radioactivity with γ-counter and convert to % ID/g (% injection dose/g organ) of each organ for estimate the biological distribution of L-[^18F]FET. […] According to reports, L-[^18F]FET can pass through blood brain barrier (BBB) and enter brain by way of L amino acid transporter system. […] Tumor- to-normal brain ratio of L-[^18F]FET at 15, 30, 60, 90 and 120 minutes are 1.54, 1.74, 3.16, 3.14 and 2.34 respectively. […] Some papers reported that patient with tumor observes no significant accumulation of radioactivity in pancreas when use positron emission tomography (PET), the discrepant results were assumed that human and rat have different metabolic pathway. Furthermore, biological distribution study of L-[^18F]FET indicated radioactivity accumulation in tumor cells (expressed by % ID/g) are much higher than other normal organs (left-brain, small intestine, kidney, liver, blood and muscle) except pancreas, this means L-[^18F]FET can be a potential PET agent for substantially different site of tumor.
# [2] = tested on: F98 glioma implanted Fischer 344 rat; assay: PET and microPET imaging of tumor-bearing rat with L-[^18F]FET; type: in vivo; settings: 400 μCi via tail vein
# Experimental: (1) Positron emission tomography (PET) studies of tumor-bearing rat (Fischer 344) with L-[^18F]FET will be carry out after 11˜12 days of brain tumor (F98 glioma) implantation.
# (2) Producing processes of L-[^18F]FET as described above, and estimates its administrating amount of agent according to the level of radioactivity.
# (3) At the very beginning, inject 400 μCi of L-[^18F]FET into tail vein. Temporarily anesthetize rats with ether at time of 0.5, 1, 1.5 and 2 hours. Fix rat on transparent acrylic board and place on PET table after securing stretched limbs on the board. Continuously anesthetize rats with isoflurane gas. Align implant portion of head with PET machine as to assure the fixation of original imaging position.
# (4) Adjust background value by blank scan before PET imaging.
# (5) Use […] radioactive source proceed transmission scan for adjust tissue attenuation.
# (6) Commence PET and microPET imaging. Perform image processing after reconstruction of acquired image data; the coronal and cross section scans show in FIGS. 3 and 9. […] In contrast to tumor site, normal tissue have lower radioactivity accumulation of L-[^18F]FET because of lower amino acid requirement.
# [3] = 15 min after tail vein injection, tumor-bearing rat
# [4] = 30 min after tail vein injection, tumor-bearing rat
# [5] = 60 min after tail vein injection, tumor-bearing rat
# [6] = 90 min after tail vein injection, tumor-bearing rat
# [7] = 120 min after tail vein injection, tumor-bearing rat
compound,measurement,setting,value
"N[C@@H](Cc1ccc(OCC[18F])cc1)C(=O)O [L-[^18F]FET, O-(2-[^18F]fluoroethyl)-L-Tyrosine]",time to maximal accumulation in cells,F98 glioma cells,10 min
same,uptake ratio (radioactivity uptake of cells / total added radioactivity),F98 glioma cells; after 10 minutes (maximal accumulation),0.47%
same,uptake ratio (radioactivity uptake of cells / total added radioactivity),F98 glioma cells; after 1 hour,0.41%
same,accumulated radioactivity in Blood,[1]; [3],0.41 ± 0.03 % ID/g
same,accumulated radioactivity in Heart,[1]; [3],0.30 ± 0.06 % ID/g
same,accumulated radioactivity in Kidney,[1]; [3],0.33 ± 0.01 % ID/g
same,accumulated radioactivity in Large intestine,[1]; [3],0.21 ± 0.01 % ID/g
same,accumulated radioactivity in Left brain,[1]; [3],0.08 ± 0.01 % ID/g
same,accumulated radioactivity in Liver,[1]; [3],0.27 ± 0.06 % ID/g
same,accumulated radioactivity in Lung,[1]; [3],0.32 ± 0.05 % ID/g
same,accumulated radioactivity in Muscle,[1]; [3],0.19 ± 0.03 % ID/g
same,accumulated radioactivity in Pancreas,[1]; [3],0.98 % ID/g and 0.98 ± 0.25 % ID/g
same,accumulated radioactivity in Right brain,[1]; [3],0.07 ± 0.02 % ID/g
same,accumulated radioactivity in Small intestine,[1]; [3],0.23 ± 0.11 % ID/g
same,accumulated radioactivity in Spleen,[1]; [3],0.31 ± 0.08 % ID/g
same,accumulated radioactivity in Stomach,[1]; [3],0.24 ± 0.05 % ID/g
same,accumulated radioactivity in Tumor,[1]; [3],0.12 ± 0.02 % ID/g
same,Tumor-to-normal brain ratio,[1]; 15 minutes after injection,1.54
same,accumulated radioactivity in Blood,[1]; [4],0.39 ± 0.03 % ID/g
same,accumulated radioactivity in Heart,[1]; [4],0.40 ± 0.07 % ID/g
same,accumulated radioactivity in Kidney,[1]; [4],0.34 ± 0.06 % ID/g
same,accumulated radioactivity in Large intestine,[1]; [4],0.28 ± 0.05 % ID/g
same,accumulated radioactivity in Left brain,[1]; [4],0.25 ± 0.05 % ID/g
same,accumulated radioactivity in Liver,[1]; [4],0.37 ± 0.07 % ID/g
same,accumulated radioactivity in Lung,[1]; [4],0.43 ± 0.09 % ID/g
same,accumulated radioactivity in Muscle,[1]; [4],0.28 ± 0.01 % ID/g
same,accumulated radioactivity in Pancreas,[1]; [4],1.76 % ID/g and 1.76 ± 0.16 % ID/g
same,accumulated radioactivity in Right brain,[1]; [4],0.21 ± 0.03 % ID/g
same,accumulated radioactivity in Small intestine,[1]; [4],0.52 ± 0.26 % ID/g
same,accumulated radioactivity in Spleen,[1]; [4],0.50 ± 0.11 % ID/g
same,accumulated radioactivity in Stomach,[1]; [4],0.36 ± 0.06 % ID/g
same,accumulated radioactivity in Tumor,[1]; [4],0.43 ± 0.10 % ID/g
same,Tumor-to-normal brain ratio,[1]; 30 minutes after injection,1.74
same,accumulated radioactivity in Blood,[1]; [5],0.38 ± 0.00 % ID/g
same,accumulated radioactivity in Heart,[1]; [5],0.43 ± 0.07 % ID/g
same,accumulated radioactivity in Kidney,[1]; [5],0.41 ± 0.08 % ID/g
same,accumulated radioactivity in Large intestine,[1]; [5],0.42 ± 0.06 % ID/g
same,accumulated radioactivity in Left brain,[1]; [5],0.40 ± 0.06 % ID/g
same,accumulated radioactivity in Liver,[1]; [5],0.41 ± 0.06 % ID/g
same,accumulated radioactivity in Lung,[1]; [5],0.43 ± 0.07 % ID/g
same,accumulated radioactivity in Muscle,[1]; [5],0.36 ± 0.04 % ID/g
same,accumulated radioactivity in Pancreas,[1]; [5],2.55 % ID/g and 2.55 ± 0.31 % ID/g
same,accumulated radioactivity in Right brain,[1]; [5],0.34 ± 0.03 % ID/g
same,accumulated radioactivity in Small intestine,[1]; [5],0.65 ± 0.04 % ID/g
same,accumulated radioactivity in Spleen,[1]; [5],0.51 ± 0.09 % ID/g
same,accumulated radioactivity in Stomach,[1]; [5],0.40 ± 0.05 % ID/g
same,accumulated radioactivity in Tumor,[1]; [5],1.26 ± 0.22 % ID/g
same,Tumor-to-normal brain ratio,[1]; 60 minutes after injection,3.16
same,accumulated radioactivity in Blood,[1]; [6],0.37 ± 0.03 % ID/g
same,accumulated radioactivity in Heart,[1]; [6],0.47 ± 0.02 % ID/g
same,accumulated radioactivity in Kidney,[1]; [6],0.42 ± 0.07 % ID/g
same,accumulated radioactivity in Large intestine,[1]; [6],0.46 ± 0.04 % ID/g
same,accumulated radioactivity in Left brain,[1]; [6],0.48 ± 0.14 % ID/g
same,accumulated radioactivity in Liver,[1]; [6],0.49 ± 0.01 % ID/g
same,accumulated radioactivity in Lung,[1]; [6],0.45 ± 0.02 % ID/g
same,accumulated radioactivity in Muscle,[1]; [6],0.44 ± 0.10 % ID/g
same,accumulated radioactivity in Pancreas,[1]; [6],2.28 % ID/g and 2.28 ± 0.76 % ID/g
same,accumulated radioactivity in Right brain,[1]; [6],0.48 ± 0.08 % ID/g
same,accumulated radioactivity in Small intestine,[1]; [6],0.43 ± 0.11 % ID/g
same,accumulated radioactivity in Spleen,[1]; [6],0.48 ± 0.11 % ID/g
same,accumulated radioactivity in Stomach,[1]; [6],0.43 ± 0.04 % ID/g
same,accumulated radioactivity in Tumor,[1]; [6],1.49 % ID/g and 1.49 ± 0.40 % ID/g
same,Tumor-to-normal brain ratio,[1]; 90 minutes after injection,3.14
same,maximum accumulation in normal brain tissue,"[1]; 90 minutes after injection, tumor-bearing rat",0.48 % ID/g
same,accumulated radioactivity in Blood,[1]; [7],0.36 ± 0.03 % ID/g
same,accumulated radioactivity in Heart,[1]; [7],0.43 ± 0.07 % ID/g
same,accumulated radioactivity in Kidney,[1]; [7],0.41 ± 0.09 % ID/g
same,accumulated radioactivity in Large intestine,[1]; [7],0.38 ± 0.09 % ID/g
same,accumulated radioactivity in Left brain,[1]; [7],0.43 ± 0.09 % ID/g
same,accumulated radioactivity in Liver,[1]; [7],0.41 ± 0.09 % ID/g
same,accumulated radioactivity in Lung,[1]; [7],0.40 ± 0.06 % ID/g
same,accumulated radioactivity in Muscle,[1]; [7],0.37 ± 0.10 % ID/g
same,accumulated radioactivity in Pancreas,[1]; [7],2.24 % ID/g and 2.24 ± 0.72 % ID/g
same,accumulated radioactivity in Right brain,[1]; [7],0.34 ± 0.04 % ID/g
same,accumulated radioactivity in Small intestine,[1]; [7],0.41 ± 0.09 % ID/g
same,accumulated radioactivity in Spleen,[1]; [7],0.47 ± 0.04 % ID/g
same,accumulated radioactivity in Stomach,[1]; [7],0.41 ± 0.03 % ID/g
same,accumulated radioactivity in Tumor,[1]; [7],1.02 ± 0.16 % ID/g
same,Tumor-to-normal brain ratio,[1]; 120 minutes after injection,2.34
same,time of maximum accumulation in brain tumor and normal brain tissue,"[1]; biological distribution, tumor-bearing rat",90 min
same,radioactivity in urine sample (excretion via urine),[1]; tumor-bearing rat,high level of radioactivity
same,radioactivity accumulation in brain tumor on PET imaging,[2]; F98 glioma Fischer 344 rat,significant radioactivity accumulation in brain tumor
same,time of maximum uptake in brain tumor on PET imaging,"[2]; imaging at 0.5, 1, 1.5 and 2 hours",90 min
